Where no end group is shown, it is not given here. [ ]: non-standard residue; d: D form.
How the values were obtained:
[1] = system: TNBS-induced model of acute inflammatory bowel disease (UC) in SD rat; test: TNBS-induced model of acute inflammatory bowel disease (UC) in SD rat; type: in vivo
From the text: In this experiment, a rat model of ulcerative colitis was established by administering trinitrobenzene sulfonic acid (TNBS) to laboratory animal male SD rats for a single enema intervention. Acute colitis in rats induced by trinitrobenzene sulfonic acid (TNBS) is an immune response induced by cytokines secreted by Th1 type cells. […] This model is simple to establish and has good reproducibility. It is an experimental animal model widely used in evaluating drugs for the treatment of inflammatory bowel disease. […] During the experimental treatment period (D1-D14), the body weight and general clinical observation indicators (including but not limited to food intake, water intake, activity level and defecation, etc.) of the animals in each experimental group were dynamically collected. At the same time, based on the relevant scoring standards for the disease activity index of ulcerative colitis, the reactivity such as the weight loss degree, stool morphology and trait, and bloody stool of the animals in each experimental group after TNBS induction were scored, and the disease activity index (DAI) of ulcerative colitis was calculated, once a day for 14 consecutive days. At the end point of the experiment, colon tissues of animals in each experimental group were collected, and the length and weight of the colon were measured and then the non-autopsy images were collected. Then the colon was cut open along the intestinal wall longitudinally and autopsy images were collected. Based on the “Criteria for Scoring Gross Morphological Manifestations of the Colon”, the gross damage with respect to colon adhesions, colon ulcers and inflammation of animals in each experimental group was observed and scored. Ulcer images were collected under a stereomicroscope and the area of colon ulcer foci was calculated, followed by routine fixation.

[2] = system: zebrafish model of intestinal mucosal injury; test: Efficacy in relieving colitis: intestinal lumen area in TNBS-treated zebrafish; type: in vivo; design: key to Activity in relieving intestinal lumen dilatation: * p < 0.05; ** p < 0.01; *** p < 0.001; “−“ indicates absence of activity; “+” indicates some relief of intestinal lumen dilatation; “#” indicates that all the zebrafishes died in the experiment; “&” indicates that 13 zebrafishes died in the experiment; settings: for Activity in relieving intestinal lumen dilatation: 1000 μg/mL, significance vs model control group of the same batch; for Intestinal lumen area (pixels, mean ± SE): 2 days after TNBS, n = 10
Experimental: Experimental animals: Wild-type AB strain zebrafishes, bred by natural pair mating. Zebrafishes aged 3 days post fertilization (3 dpf). Zebrafishes were kept in fish farming water at 28° C. (water quality: 200 mg of instant sea salt in each 1L of reverse osmosis water, with the conductivity of 450-550 μS/cm; pH of 6.5-8.5; and hardness of 50-100 mg/L CaCO3), the experimental animal use license number is: SYXK (Zhe) 2012-0171, and the breeding management met the requirements of the international AAALAC certification (certification number: 001458).
(1) Grouping: Polypeptide group: prepared into a stock solution of 20.0 mg/mL with ultrapure water and stored at −20° C.
Positive control group: prednisone, as white powder, with batch number C10016501, Shanghai Macklin Biochemical Technology Co., Ltd., stored at 4° C.; prepared into a 15.0 mg/mL stock solution with DMSO, and stored in aliquots at −20° C.
Normal control group and model control group.
(2) Experimental method: 3 dpf wild-type AB strain zebrafishes were randomly selected and placed in a 6-well plate, with 30 zebrafishes in each well (experimental group). Except for the normal control group, all other experimental groups were given TNBS in water to establish the zebrafish model of intestinal mucosal injury. After 2 days of treatment at 28° C., TNBS was removed, and polypeptide compound in water (at concentrations shown in Table 4) was given respectively, and for the positive control, prednisone was 15.0 μg/mL. A normal control group (healthy group) and a model control group (intestinal mucosal injury group) were set up at the same time. The capacity of each well (experimental group) was 3 mL. After 2 days of treatment at 28° C., 10 zebrafishes were randomly selected from each experimental group and photographed under a dissecting microscope. NIS-Elements D 3.20 advanced image processing software was used to analyze and collect data, and the intestinal lumen area of the zebrafish was analyzed. The statistical analysis results of this indicator were used to evaluate the efficacy of the samples in relieving colitis. The statistics results were expressed as mean±SE. SPSS26.0 software was used for statistical analysis, and p<0.05 indicates statistically significant difference.
The concentration gradient of the test substances set in this experimental system was 250 μg/mL, 500 μg/mL, and 1000 μg/mL. […] When the concentration of the test substance was further increased for intervention, the death phenomenon of zebrafishes was found in the group; therefore, in the subsequent rounds of activity evaluation, each test polypeptide compound was uniformly administered at 1000 μg/mL for intervention.

[3] = D 0-D 14, compound 12: 0.8 mg/kg, mesalazine: 30.0 mg/kg, enema once a day 14 days, mean ± SD
[4] = D 14, compound 12: 0.8 mg/kg, mesalazine: 30.0 mg/kg, enema once a day 14 days, mean ± SD
[5] = experimental endpoint, compound 12: 0.8 mg/kg, mesalazine: 30.0 mg/kg, enema once a day 14 days, mean ± SD
[6] = set treatment regimen, enema once a day 14 days, vs model control group

Nc1ccc(O)c(C(=O)O)c1 [Mesalazine, mesalazine, reference compound]
Body weight, Grouping day (D 0, g) ([1]; D 0, before treatment, compound 12: 0.8 mg/kg, mesalazine: 30.0 mg/kg, enema once a day, mean ± SD): 276.64 ± 7.47 g | DAI score AUC(0-14 d) (D 0-D 14) [1, 3]: 58.75 ± 2.93 | Weight change range (D 0-D 14, %) [1, 3]: −4.29 ± 7.79% | DAI score, Experimental day 1 (D 1, point) ([1]; D 1, compound 12: 0.8 mg/kg, mesalazine: 30.0 mg/kg, enema once a day, mean ± SD): 4.2 ± 0.4 point | DAI score, Experimental day 3 (D 3, point) ([1]; D 3, compound 12: 0.8 mg/kg, mesalazine: 30.0 mg/kg, enema once a day, mean ± SD): 6.2 ± 0.6 point | Body weight, Experimental day 5 (D 5, g) ([1]; D 5, compound 12: 0.8 mg/kg, mesalazine: 30.0 mg/kg, enema once a day, mean ± SD): 234.86 ± 8.07 g | Body weight, Experimental endpoint (D 14, g) [1, 4]: 264.43 ± 17.65 g | DAI score, Experimental endpoint (D 14, point) [1, 4]: 2.1 ± 1.6 point | Colon length (cm) [1, 5]: 14.76 ± 2.06 cm | Colon ulcer and inflammation score (point) [1, 5]: 4.30 ± 0.95 point | Colon weight (g) [1, 5]: 3.42 ± 1.15^ g | Colonic adhesion score (point) [1, 5]: 2.60 ± 0.52 point | Effect on disease progression of ulcerative colitis / DAI scores (in words) [1, 6]: no significant effect on the disease symptoms of ulcerative colitis | Effect on weight gain inhibition / weight loss response of model animals (in words) [1, 6]: did not show a significant weight improvement effect

Ala-Lys-Pro-Arg (AKPR; printed: Ala-Lys-Pro-Arg) [Compound 11]
Activity in relieving intestinal lumen dilatation [2]: +

Val-Ala-Ala-Gln (VAAQ; printed: Val-Ala-Ala-Gln) [Compound 8]
Activity in relieving intestinal lumen dilatation [2]: +

Pro-Arg-Lys-Val (PRKV; printed: Pro-Arg-Lys-Val) [Compound 18]
Activity in relieving intestinal lumen dilatation [2]: −

Arg-Lys-Val-Ala (RKVA; printed: Arg-Lys-Val-Ala) [Compound 15]
Intestinal lumen area (pixels, mean ± SE) ([2]; 250 μg/mL in water): 40719 ± 4647 pixels | Intestinal lumen area (pixels, mean ± SE) ([2]; 500 μg/mL in water): 31319 ± 5274 pixels | Intestinal lumen area (pixels, mean ± SE) ([2]; 1000 μg/mL in water): 30268 ± 2437 pixels | Activity in relieving intestinal lumen dilatation [2]: * (* p < 0.05) | Intestinal lumen area compared with the model control group (in words) ([2]; 250, 500, 1000 μg/mL, Table 4): significant statistical differences compared with the model control group

EPVPQAKVPY [Compound 102]
Activity in relieving intestinal lumen dilatation [2]: +

KEPVPQAKPRKVAAA [Compound 30]
Activity in relieving intestinal lumen dilatation [2]: +

KEPIPQAKPRKVAAQ [Compound 106]
Activity in relieving intestinal lumen dilatation [2]: ** (** p < 0.01)

Gln-Ala-Lys-Pro (QAKP; printed: Gln-Ala-Lys-Pro) [Compound 17]
Activity in relieving intestinal lumen dilatation [2]: +

KEPVPQAKGRKVAAQ [Compound 33]
Activity in relieving intestinal lumen dilatation [2]: +

VPPKEPVPQAKPRKVAAQ [Compound 100]
Activity in relieving intestinal lumen dilatation [2]: *** (*** p < 0.001)

KEPVPQAAPRKVAAQ [Compound 24]
Activity in relieving intestinal lumen dilatation [2]: +

SSEDIKEPVPQ [Compound 99]
Activity in relieving intestinal lumen dilatation [2]: * (* p < 0.05)

KEPVPQAKPRKVA[dA]Q [Compound 74]
Activity in relieving intestinal lumen dilatation [2]: +

PVPQAKPR [Compound 59]
Activity in relieving intestinal lumen dilatation [2]: +

GPETAFLREPVPQAK [Compound 96]
Activity in relieving intestinal lumen dilatation [2]: *** (*** p < 0.001)

KEPVPQAKPRKVAA[dQ] [Compound 75]
Activity in relieving intestinal lumen dilatation [2]: * (* p < 0.05)

VPYKEPVPQAKPRKVAAQ [Compound 88]
Activity in relieving intestinal lumen dilatation [2]: * (* p < 0.05)

EPVP[dQ]AK [Compound 82]
Activity in relieving intestinal lumen dilatation [2]: +

KEPVPQAKPRAVAAQ [Compound 28]
Activity in relieving intestinal lumen dilatation [2]: +

Lys-Glu-Pro-Val-Pro (KEPVP; printed: Lys-Glu-Pro-Val-Pro) [Compound 85]
Activity in relieving intestinal lumen dilatation [2]: * (* p < 0.05)

KEP[dV]PQAKPRKVAAQ [Compound 64]
Activity in relieving intestinal lumen dilatation [2]: +

RKDVYKEPVPQAK [Compound 92]
Activity in relieving intestinal lumen dilatation [2]: ** (** p < 0.01)

KEPVPQAKPRKVAAE [Compound 103]
Activity in relieving intestinal lumen dilatation [2]: * (* p < 0.05)

Pro-Gln-Ala-Lys (PQAK; printed: Pro-Gln-Ala-Lys) [Compound 14]
Activity in relieving intestinal lumen dilatation [2]: +

From patent US20250101063A1, “POLYPEPTIDE COMPOUND AND USE THEREOF IN TREATMENT OF ENTERITIS” (Sichuan Gooddoctor Panxi Pharmaceutical Co., Ltd., priority 2022, published 2025)
